Results taken from patent US10188634B2, “3-(3H-imidazo[4,5-C]pyridin-2-yl)-1 H-pyrazolo[4,3-B]pyridines and therapeutic uses thereof” (Samumed, LLC, priority 2015, dated 2019).
pEC50: −log10 of the molar value.

Tests used:
Assay type in all cases: cell-based
[1] = system: LL29 cells (primary human fibroblasts derived from IPF patients) treated with TGF-β1, α-smooth muscle actin; assay: Inhibition of the fibrotic process: αSMA staining in TGF-β1 treated primary human fibroblasts from IPF patients (LL29 cells); conditions: Fibroblast, 96 h; for pEC50: LL29 cells treated with TGF-β1 (20 ng/mL), 4 days; for inhibition at 10 µM: LL29 cells treated with TGF-β1, 4 days, read-out: percent inhibition in brackets (given for EC50 >10 μM)
SW480 colon cancer cells = assay: Cell viability assay (CellTiter-Blue) in SW480 colon cancer cells; conditions: Homo sapiens, 96 h; for pEC50: four days incubation, CellTiter-Blue cell viability
Procedure, shortened: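 Four-day exposure of SW480 cells (~2×10^3/well) to compound from 10 μM down to 0.004 μM in 1:3 steps, in duplicate. Resorufin fluorescence from CellTiter-Blue after ~3 h served as the viability read-out. EC50 values came from nonlinear curve fits, with % inhibition at 10 μM given where EC50 >10 μM.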

[2] = system: Wnt activity (Sp5-Luc reporter, human Sp5 promoter with eight TCF/LEF binding sites) in SW480 colon carcinoma cells; assay: Screening assay for Wnt activity: Sp5-Luc reporter gene assay in SW480 cells; conditions: for pEC50: 10-point dose-response starting from 10 μM, overnight incubation
Procedure, shortened: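 Luminescence (BrightGlo) read after overnight 37 °C exposure of Sp5-Luc SW480 reporter cells, 4,000/well in 1% FBS, to compound dosed 1:3 over 10 points from 10 μM with 0.1% DMSO. Values normalized to DMSO-only cells, fitted with variable-slope four-parameter model; where EC50 exceeds 10 μM, % inhibition at 10 μM reported.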

pEC50 (SW480 colon cancer cells)	pEC50 [2]	Compound	pEC50 [1]	inhibition at 10 µM [1]	inhibition at 10 µM (SW480 colon cancer cells; 10 μM, four days, CellTiter-Blue, read-out: percent inhibition at 10 μM (given for EC50 of >10 μM))	inhibition at 10 µM ([2]; 10 μM, read-out: percent inhibition at 10 μM (given for EC50 of >10 μM))
6.07	6.20	CN(C)c1cncc(-c2ccc3[nH]nc(-c4nc5c(-c6cccc(F)c6)cncc5[nH]4)c3n2)c1 [Compound 7, 5-(3-(7-(3-Fluorophenyl)-3H-imidazo[4,5-c]pyridin-2-yl)-1H-pyrazolo[4,3-b]pyridin-5-yl)-N,N-dimethylpyridin-3-amine]	< 5.00	0%		
6.11	5.96	CN(C)Cc1cncc(-c2ccc3[nH]nc(-c4nc5c(-c6cccc(F)c6)cncc5[nH]4)c3n2)c1 [Compound 13, 1-(5-(3-(7-(3-Fluorophenyl)-3H-imidazo[4,5-c]pyridin-2-yl)-1H-pyrazolo[4,3-b]pyridin-5-yl)pyridin-3-yl)-N,N-dimethylmethanamine]	6.32			
< 5.00	< 5.00	O=C(Nc1cncc(-c2ccc3[nH]nc(-c4nc5c(-c6cccc(F)c6)cncc5[nH]4)c3n2)c1)C1CC1 [Compound 20, N-(5-(3-(7-(3-Fluorophenyl)-3H-imidazo[4,5-c]pyridin-2-yl)-1H-pyrazolo[4,3-b]pyridin-5-yl)pyridin-3-yl)cyclopropanecarboxamide]	< 5.00	0%	5.1%	7%
6.01	5.96	Fc1cccc(-c2cncc3[nH]c(-c4n[nH]c5ccc(-c6cncc(CN7CCC(F)(F)C7)c6)nc45)nc23)c1 [Compound 26, 5-(5-((3,3-Difluoropyrrolidin-1-yl)methyl)pyridin-3-yl)-3-(7-(3-fluorophenyl)-3H-imidazo[4,5-c]pyridin-2-yl)-1H-pyrazolo[4,3-b]pyridine]	5.21			
5.21	5.56	CC(C)(C)C(=O)Nc1cncc(-c2ccc3[nH]nc(-c4nc5c(-c6ccc(F)cc6)cncc5[nH]4)c3n2)c1 [Compound 36, N-(5-(3-(7-(4-Fluorophenyl)-3H-imidazo[4,5-c]pyridin-2-yl)-1H-pyrazolo[4,3-b]pyridin-5-yl)pyridin-3-yl)pivalamide]	5.91			
5.98	5.47	Fc1ccc(-c2cncc3[nH]c(-c4n[nH]c5ccc(-c6cncc(CN7CCCC7)c6)nc45)nc23)cc1 [Compound 42, 3-(7-(4-Fluorophenyl)-3H-imidazo[4,5-c]pyrid-2-yl)-5-(5-(pyrrolidin-1-ylmethyl)pyridin-3-yl)-1H-pyrazolo[4,3-b]pyridine]	5.61			
6.44	6.19	Fc1ccccc1-c1cncc2[nH]c(-c3n[nH]c4ccc(-c5ccccn5)nc34)nc12 [Compound 84, 3-(7-(2-Fluorophenyl)-3H-imidazo[4,5-c]pyridin-2-yl)-5-(pyridin-2-yl)-1H-pyrazolo[4,3-b]pyridine]	< 5.00	29.7%		
5.21	5.87	CC(C)Nc1cncc(-c2ccc3[nH]nc(-c4nc5c(-c6cccnc6)cncc5[nH]4)c3n2)c1 [Compound 96, N-Isopropyl-5-(3-(7-(pyridin-3-yl)-3H-imidazo[4,5-c]pyridin-2-yl)-1H-pyrazolo[4,3-b]pyridin-5-yl)pyridin-3-amine]	5.51			
5.42	5.40	CN(C)c1cncc(-c2ccc3[nH]nc(-c4nc5c(N6CCCCC6)cncc5[nH]4)c3n2)c1 [Compound 175, N,N-dimethyl-5-(3-(7-(piperidin-1-yl)-3H-imidazo[4,5-c]pyridin-2-yl)-1H-pyrazolo[4,3-b]pyridin-5-yl)pyridin-3-amine]	5.88			
6.07	6.19	Cc1ccncc1-c1ccc2[nH]nc(-c3nc4c(-c5ccsc5)cncc4[nH]3)c2n1 [Compound 257, 5-(4-Methylpyridin-3-yl)-3-(7-(thiophen-3-yl)-3H-imidazo[4,5-c]pyridin-2-yl)-1H-pyrazolo[4,3-b]pyridine]	5.07			
